Reference: ChEMBL document CHEMBL1153399, “Design, synthesis and SAR studies of tripeptide analogs with the scaffold 3-phenylpropane-1,2-diamine as aminopeptidase N/CD13 inhibitors” (Bioorg Med Chem, 2009)

How the values were obtained:
[1] = target: T1, Aminopeptidase N (Sus scrofa, UniProt P15145); assay: Inhibition of pig kidney microsomal APN
T1 sequence (P15145 whole entry): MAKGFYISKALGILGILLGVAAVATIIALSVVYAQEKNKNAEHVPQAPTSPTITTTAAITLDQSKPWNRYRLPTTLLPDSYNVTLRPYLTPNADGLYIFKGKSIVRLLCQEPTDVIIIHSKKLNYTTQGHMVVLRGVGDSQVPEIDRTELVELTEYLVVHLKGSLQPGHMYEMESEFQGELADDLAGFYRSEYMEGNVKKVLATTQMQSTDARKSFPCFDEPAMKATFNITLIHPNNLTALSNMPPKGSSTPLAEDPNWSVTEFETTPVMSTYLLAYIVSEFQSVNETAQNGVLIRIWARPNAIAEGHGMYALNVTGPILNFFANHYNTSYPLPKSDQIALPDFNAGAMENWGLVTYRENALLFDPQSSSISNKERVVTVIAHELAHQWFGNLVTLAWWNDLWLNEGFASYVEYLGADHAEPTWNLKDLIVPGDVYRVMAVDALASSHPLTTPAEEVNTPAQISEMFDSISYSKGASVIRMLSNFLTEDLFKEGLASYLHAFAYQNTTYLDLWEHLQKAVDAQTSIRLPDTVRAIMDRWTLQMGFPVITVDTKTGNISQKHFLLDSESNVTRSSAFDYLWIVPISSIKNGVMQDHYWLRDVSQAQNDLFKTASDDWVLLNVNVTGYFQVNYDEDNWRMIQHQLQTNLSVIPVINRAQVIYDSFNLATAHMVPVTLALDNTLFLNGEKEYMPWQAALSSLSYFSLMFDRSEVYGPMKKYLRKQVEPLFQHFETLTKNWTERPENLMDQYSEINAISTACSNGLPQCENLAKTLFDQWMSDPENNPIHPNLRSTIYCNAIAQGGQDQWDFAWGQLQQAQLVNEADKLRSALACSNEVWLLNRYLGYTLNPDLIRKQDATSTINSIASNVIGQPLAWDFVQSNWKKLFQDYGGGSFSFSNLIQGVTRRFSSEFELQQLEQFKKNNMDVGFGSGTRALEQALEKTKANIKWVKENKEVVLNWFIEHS

[2] = tested on: HL-60; assay: Cytotoxicity against human HL60 cells after 48 hrs by MTT assay; format: functional, cell-based; conditions: HL-60, 48 h

SMILES	IC50 [1] [µM]	IC50 [2] [µM]
CC(C)C[C@H](NC(=O)N[C@@H](Cc1ccccc1)C(=O)NC[C@H](N)Cc1ccccc1)C(=O)O	181	
N[C@@H](CNC(=O)[C@H](Cc1ccccc1)NC(=O)CCCCl)Cc1ccccc1	693	
CSCC[C@H](NC(=O)N[C@@H](CS)C(=O)NC[C@H](N)Cc1ccccc1)C(=O)O	16.5	1180
N[C@@H](CNC(=O)[C@H](Cc1ccccc1)NC(=O)c1ccc([N+](=O)[O-])cc1)Cc1ccccc1	1390	
NCCCC[C@H](NC(=O)N[C@@H](Cc1ccccc1)C(=O)NC[C@H](N)Cc1ccccc1)C(=O)O	89.5	1490
CSCC[C@H](NC(=O)N[C@@H](Cc1ccccc1)C(=O)NC[C@H](N)Cc1ccccc1)C(=O)O	8.8	270
NCCC[C@H](NC(=O)N[C@@H](CS)C(=O)NC[C@H](N)Cc1ccccc1)C(=O)O	33.2	
N[C@@H](CNC(=O)[C@H](CS)NC(=O)N[C@@H](Cc1ccccc1)C(=O)O)Cc1ccccc1	9.8	1060
N[C@@H](CNC(=O)[C@H](CS)NC(=O)NCC(=O)O)Cc1ccccc1	174	
NCCCCCC(=O)N[C@@H](CS)C(=O)NC[C@H](N)Cc1ccccc1	202	
CC(C)[C@H](NC(=O)N[C@@H](Cc1ccccc1)C(=O)NC[C@H](N)Cc1ccccc1)C(=O)O	58.5	
N[C@@H](CNC(=O)[C@H](Cc1ccccc1)NC(=O)c1cc([N+](=O)[O-])cc([N+](=O)[O-])c1)Cc1ccccc1	277	
N[C@@H](CNC(=O)[C@H](Cc1ccccc1)NC(=O)c1ccc(Cl)cc1Cl)Cc1ccccc1	2260	
COc1ccc(C(=O)N[C@@H](Cc2ccccc2)C(=O)NC[C@H](N)Cc2ccccc2)cc1	174	
CC(C)C[C@H](NC(=O)N[C@@H](Cc1ccc(O)cc1)C(=O)O)C(=O)NC[C@H](N)Cc1ccccc1	107	
N[C@@H](CNC(=O)[C@H](Cc1ccccc1)NC(=O)N[C@H](CS)C(=O)O)Cc1ccccc1	49.2	

SMILES	IC50 [1] [µM]	IC50 [2] [µM]
CC(C)C[C@H](NC(=O)NCC(=O)O)C(=O)NC[C@H](N)Cc1ccccc1	3240	
N[C@@H](CNC(=O)[C@H](CS)NC(=O)c1ccc(Cl)cc1Cl)Cc1ccccc1	1050	
CC[C@H](C)[C@H](NC(=O)N[C@@H](CC(C)C)C(=O)NC[C@H](N)Cc1ccccc1)C(=O)O	148	
CC(C)C[C@H](NC(=O)N[C@@H](C)C(=O)O)C(=O)NC[C@H](N)Cc1ccccc1	522	
CC(C)C[C@H](NC(=O)CCCCCN)C(=O)NC[C@H](N)Cc1ccccc1	1460	
NCCCCCC(=O)N[C@@H](Cc1ccccc1)C(=O)NC[C@H](N)Cc1ccccc1	1540	
NCCCC[C@H](NC(=O)N[C@@H](CS)C(=O)NC[C@H](N)Cc1ccccc1)C(=O)O	8.6	290
CC(C)C[C@H](NC(=O)N[C@@H](CS)C(=O)NC[C@H](N)Cc1ccccc1)C(=O)O	45	2660
N[C@@H](CNC(=O)[C@H](CS)NC(=O)N[C@H](CS)C(=O)O)Cc1ccccc1	10.3	540
N[C@@H](CNC(=O)[C@H](Cc1ccccc1)NC(=O)CCc1ccccc1)Cc1ccccc1	366	
CC[C@H](C)[C@H](NC(=O)N[C@@H](Cc1ccccc1)C(=O)NC[C@H](N)Cc1ccccc1)C(=O)O	158	
CC[C@H](C)[C@H](NC(=O)N[C@@H](CS)C(=O)NC[C@H](N)Cc1ccccc1)C(=O)O	14.8	
CC(C)C[C@H](NC(=O)N[C@@H](CC(C)C)C(=O)NC[C@H](N)Cc1ccccc1)C(=O)O	142	
CSCC[C@H](NC(=O)N[C@@H](CC(C)C)C(=O)NC[C@H](N)Cc1ccccc1)C(=O)O	30.4	
CC(C)[C@H](NC(=O)N[C@@H](CS)C(=O)NC[C@H](N)Cc1ccccc1)C(=O)O	58.8	
